Ki data for 5 molecules are collected here from ChEMBL document CHEMBL2417473, “The importance of hydrogen bonding and aromatic stacking to the affinity and efficacy of cannabinoid receptor CB2 antagonist, 5-(4-chloro-3-methylphenyl)-1-[(4-methylphenyl)methyl]-N-[(1S,2S,4R)-1,3,3-trimethylbicyclo[2.2.1]hept-2-yl]-1H-pyrazole-3-carboxamide (SR144528)” (J Med Chem, 2013).

This assay concerns the target Cannabinoid receptor 2 (Homo sapiens, UniProt P34972). Briefly: Displacement of [3H]CP-55,940 from human CB2 receptor after 1 hr by competitive binding assay. A general note: Displacement assays read how much labelled ligand stays bound in the presence of the test substance.

Cannabinoid receptor 2, sequence (P34972 whole entry): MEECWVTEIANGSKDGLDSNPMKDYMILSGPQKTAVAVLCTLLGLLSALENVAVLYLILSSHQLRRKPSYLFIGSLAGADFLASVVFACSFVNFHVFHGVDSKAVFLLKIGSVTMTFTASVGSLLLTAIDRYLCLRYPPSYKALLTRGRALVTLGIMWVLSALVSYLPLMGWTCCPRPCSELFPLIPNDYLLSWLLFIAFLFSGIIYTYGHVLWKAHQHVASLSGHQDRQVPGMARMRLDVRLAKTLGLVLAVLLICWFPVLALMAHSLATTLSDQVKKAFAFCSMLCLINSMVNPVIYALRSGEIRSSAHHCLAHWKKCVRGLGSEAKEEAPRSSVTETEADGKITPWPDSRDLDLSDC

The term Ki denotes the equilibrium dissociation constant of an inhibitor or competing ligand from its target. Low values mean a stronger hold on the target, high ones a looser hold on the target. `Cc1ccc(Cn2nc(C(=O)N[C@@H]3C[C@@H]4CC[C@@]3(C)C4(C)C)cc2-c2ccc(Cl)c(C)c2)cc1`: the affinity, expressed as Ki, was 29.1 nM. `Cc1cc(-c2cc(C(=O)N[C@@H]3C(C)(C)[C@@H]4CC[C@@]3(C)C4)nn2-c2ccccc2)ccc1Cl` yielded a Ki of 94.2 nM. The same measure for `Cc1ccc(Cn2cc(/C=C/[C@@H]3C(C)(C)[C@@H]4CC[C@@]3(C)C4)cc2-c2ccc(Cl)c(C)c2)cc1`: 1220 nM; for `Cc1ccc(Cn2nc(/C=C/[C@@H]3C(C)(C)[C@@H]4CC[C@@]3(C)C4)cc2-c2ccc(Cl)c(C)c2)cc1` (relative stereo): 527 nM; for `Cc1ccc(Cn2cc(C(=O)N[C@@H]3C(C)(C)[C@@H]4CC[C@@]3(C)C4)cc2-c2ccc(Cl)c(C)c2)cc1` (relative stereo): 15.3 nM.
